Test: Toxicology in rats, oral, histopathology
Format: in vivo
Conditions: rat, in vivo, po
Text: After 32 days, the rats were sacrificed and their organs were examined under a microscope.

## O.O.O.O.[Na+].[O-]B1OO1 [sodium perborate tetrahydrate]
0.125 mg/kg
  HEART Notable or abnormal, %: 0%
  HEART Notable or abnormal, No Exam: 0/10
  HEART Within normal limits, %: 100%
  HEART Within normal limits, No Exam: 10/10
  INTESTINE, Large Notable or abnormal, %: 0%
  INTESTINE, Large Notable or abnormal, No Exam: 0/10
  INTESTINE, Large Within normal limits, %: 100%
  INTESTINE, Large Within normal limits, No Exam: 10/10
  INTESTINE, Small Notable or abnormal, %: 0%
  INTESTINE, Small Notable or abnormal, No Exam: 0/10
  INTESTINE, Small Within normal limits, %: 100%
  INTESTINE, Small Within normal limits, No Exam: 10/10
  KIDNEY Edema, %: 0%
  KIDNEY Edema, No Exam: 0/10
  KIDNEY Notable or abnormal, %: 0%
  KIDNEY Notable or abnormal, No Exam: 0/10
  KIDNEY Within normal limits, %: 100%
  KIDNEY Within normal limits, No Exam: 10/10
  LIVER Fattening, %: 0%
  LIVER Fattening, No Exam: 0/10
  LIVER Infiltration, %: 0%
  LIVER Infiltration, No Exam: 0/10
  LIVER Notable or abnormal, %: 0%
  LIVER Notable or abnormal, No Exam: 0/10
  LIVER Within normal limits, %: 100%
  LIVER Within normal limits, No Exam: 10/10
  LUNG Lymphocytic infiltration, %: 0%
  LUNG Lymphocytic infiltration, No Exam: 0/10
  LUNG Notable or abnormal, %: 0%
  LUNG Notable or abnormal, No Exam: 0/10
  LUNG Pulmonary edema, %: 0%
  LUNG Pulmonary edema, No Exam: 0/10
  LUNG Within normal limits, %: 100%
  LUNG Within normal limits, No Exam: 10/10
  PANCREAS Notable or abnormal, %: 0%
  PANCREAS Notable or abnormal, No Exam: 0/10
  PANCREAS Within normal limits, %: 100%
  PANCREAS Within normal limits, No Exam: 10/10
  SPLEEN Notable or abnormal, %: 0%
  SPLEEN Notable or abnormal, No Exam: 0/10
  SPLEEN Within normal limits, %: 100%
  SPLEEN Within normal limits, No Exam: 10/10
  STOMACH Notable or abnormal, %: 0%
  STOMACH Notable or abnormal, No Exam: 0/10
  STOMACH Within normal limits, %: 100%
  STOMACH Within normal limits, No Exam: 10/10
0.25 mg/kg
  HEART Notable or abnormal, %: 0%
  HEART Notable or abnormal, No Exam: 0/10
  HEART Within normal limits, %: 100%
  HEART Within normal limits, No Exam: 10/10
  INTESTINE, Large Notable or abnormal, %: 0%
  INTESTINE, Large Notable or abnormal, No Exam: 0/10
  INTESTINE, Large Within normal limits, %: 100%
  INTESTINE, Large Within normal limits, No Exam: 10/10
  INTESTINE, Small Notable or abnormal, %: 0%
  INTESTINE, Small Notable or abnormal, No Exam: 0/10
  INTESTINE, Small Within normal limits, %: 100%
  INTESTINE, Small Within normal limits, No Exam: 10/10
  KIDNEY Edema, %: 0%
  KIDNEY Edema, No Exam: 0/10
  KIDNEY Notable or abnormal, %: 0%
  KIDNEY Notable or abnormal, No Exam: 0/10
  KIDNEY Within normal limits, %: 100%
  KIDNEY Within normal limits, No Exam: 10/10
  LIVER Fattening, %: 0%
  LIVER Fattening, No Exam: 0/10
  LIVER Infiltration, %: 0%
  LIVER Infiltration, No Exam: 0/10
  LIVER Notable or abnormal, %: 0%
  LIVER Notable or abnormal, No Exam: 0/10
  LIVER Within normal limits, %: 100%
  LIVER Within normal limits, No Exam: 10/10
  LUNG Lymphocytic infiltration, %: 0%
  LUNG Lymphocytic infiltration, No Exam: 0/10
  LUNG Notable or abnormal, %: 0%
  LUNG Notable or abnormal, No Exam: 0/10
  LUNG Pulmonary edema, %: 0%
  LUNG Pulmonary edema, No Exam: 0/10
  LUNG Within normal limits, %: 100%
  LUNG Within normal limits, No Exam: 10/10
  PANCREAS Notable or abnormal, %: 0%
  PANCREAS Notable or abnormal, No Exam: 0/10
  PANCREAS Within normal limits, %: 100%
  PANCREAS Within normal limits, No Exam: 10/10
  SPLEEN Notable or abnormal, %: 0%
  SPLEEN Notable or abnormal, No Exam: 0/10
  SPLEEN Within normal limits, %: 100%
  SPLEEN Within normal limits, No Exam: 10/10
  STOMACH Notable or abnormal, %: 0%
  STOMACH Notable or abnormal, No Exam: 0/10
  STOMACH Within normal limits, %: 100%
  STOMACH Within normal limits, No Exam: 10/10
0.5 mg/kg
  HEART Notable or abnormal, %: 0%
  HEART Notable or abnormal, No Exam: 0/10
  HEART Within normal limits, %: 100%
  HEART Within normal limits, No Exam: 10/10
  INTESTINE, Large Notable or abnormal, %: 0%
  INTESTINE, Large Notable or abnormal, No Exam: 0/10
  INTESTINE, Large Within normal limits, %: 100%
  INTESTINE, Large Within normal limits, No Exam: 10/10
  INTESTINE, Small Notable or abnormal, %: 0%
  INTESTINE, Small Notable or abnormal, No Exam: 0/10
  INTESTINE, Small Within normal limits, %: 100%
  INTESTINE, Small Within normal limits, No Exam: 10/10
  KIDNEY Edema, %: 0%
  KIDNEY Edema, No Exam: 0/10
  KIDNEY Notable or abnormal, %: 0%
  KIDNEY Notable or abnormal, No Exam: 0/10
  KIDNEY Within normal limits, %: 100%
  KIDNEY Within normal limits, No Exam: 10/10
  LIVER Fattening, %: 0%
  LIVER Fattening, No Exam: 0/10
  LIVER Infiltration, %: 0%
  LIVER Infiltration, No Exam: 0/10
  LIVER Notable or abnormal, %: 0%
  LIVER Notable or abnormal, No Exam: 0/10
  LIVER Within normal limits, %: 100%
  LIVER Within normal limits, No Exam: 10/10
  LUNG Lymphocytic infiltration, %: 0%
  LUNG Lymphocytic infiltration, No Exam: 0/10
  LUNG Notable or abnormal, %: 0%
  LUNG Notable or abnormal, No Exam: 0/10
  LUNG Pulmonary edema, %: 0%
  LUNG Pulmonary edema, No Exam: 0/10
  LUNG Within normal limits, %: 100%
  LUNG Within normal limits, No Exam: 10/10
  PANCREAS Notable or abnormal, %: 0%
  PANCREAS Notable or abnormal, No Exam: 0/10
  PANCREAS Within normal limits, %: 100%
  PANCREAS Within normal limits, No Exam: 10/10
  SPLEEN Notable or abnormal, %: 0%
  SPLEEN Notable or abnormal, No Exam: 0/10
  SPLEEN Within normal limits, %: 100%
  SPLEEN Within normal limits, No Exam: 10/10
  STOMACH Notable or abnormal, %: 0%
  STOMACH Notable or abnormal, No Exam: 0/10
  STOMACH Within normal limits, %: 100%
  STOMACH Within normal limits, No Exam: 10/10
1 mg/kg
  HEART Notable or abnormal, %: 0%
  HEART Notable or abnormal, No Exam: 0/10
  HEART Within normal limits, %: 100%
  HEART Within normal limits, No Exam: 10/10
  INTESTINE, Large Notable or abnormal, %: 0%
  INTESTINE, Large Notable or abnormal, No Exam: 0/10
  INTESTINE, Large Within normal limits, %: 100%
  INTESTINE, Large Within normal limits, No Exam: 10/10
  INTESTINE, Small Notable or abnormal, %: 0%
  INTESTINE, Small Notable or abnormal, No Exam: 0/10
  INTESTINE, Small Within normal limits, %: 100%
  INTESTINE, Small Within normal limits, No Exam: 10/10
  KIDNEY Edema, %: 0%
  KIDNEY Edema, No Exam: 0/10
  KIDNEY Notable or abnormal, %: 0%
  KIDNEY Notable or abnormal, No Exam: 0/10
  KIDNEY Within normal limits, %: 100%
  KIDNEY Within normal limits, No Exam: 10/10
  LIVER Fattening, %: 0%
  LIVER Fattening, No Exam: 0/10
  LIVER Infiltration, %: 0%
  LIVER Infiltration, No Exam: 0/10
  LIVER Notable or abnormal, %: 0%
  LIVER Notable or abnormal, No Exam: 0/10

From patent US20230263825A1, “ANTI-CANCER ACTIVITY OF PERBORATE SALTS” (priority 2020, published 2023)
